The record followed here is US20050009924A1 (priority 2003, published 2005).

Data set [1] relates to human hepatoma G2 cells. The data set can be described thus: Cytotoxicity assay (XTT colorimetric), Hep G2. It counts as cell-based. The settings on record: 48 h of drug exposure. A general note: Formazan colour is commonly taken as a measure of viable cells.
Data set [2] relates to transcriptional activity of hTERT. The data set can be described thus: SEAP reporter assay of hTERT expression, PhTERT-SEAP (hTERT-BJ1). It counts as cell-based, human. The following applies: PhTERT-SEAP (hTERT-BJ1). The procedure: (§1) Secreted alkaine phosphatase was used as the reporter system to monitor the transcriptional activity of hTERT. Here, about […] each were grown in 96-well plates and incubated at 37° C. for 24 h and changed with fresh media. Varying amounts of drugs were added and cells were incubated for another 24 h. Culture media were collected and heated at 65° C. for 10 min to inactivate heat-labile phosphatases. An equal amount of SEAP buffer (2 M diethanolamine, 1 mM MgCl2, and 20 mM […]) was added to the media and p-nitrophenyl phosphate was added to a final concentration of 12 mM. Absorptions at 405 nm were taken, and the rate of absorption increase is determined.
(§2) Culture media were changed every 3 days. […] The stable clones were selected using G418.

Data set [3] has as its system rat glioma C6 cells. The data set can be described thus: Cytotoxicity assay (XTT colorimetric), C6 cells. The following applies: 48 h of drug exposure. Format: cell-based.
The test system of data set [4] is hepatitis B virus transfected hepatoma cell lines, HepG 2.2.15 cells. The data set can be described thus: Cytotoxicity assay, 2.2.15 cells. Format: cell-based, human. The settings on record: 48 h of drug exposure.
The test system of data set [5] is transcriptional activity of hTERT. The data set can be described thus: SEAP reporter assay of hTERT expression, PhTERT-SEAP (H1299). It counts as cell-based, human. The following applies: PhTERT-SEAP(hTERT-H1299). The procedure:
as §1, §2
In general terms: In a reporter assay the amount or activity of a reporter protein is the signal.

The subject of data set [6] is hTERT-BJ1 cells. The data set can be described thus: MTT relative viability, PhTERT-SEAP (hTERT-BJ1) cells. The settings on record: PhTERT-SEAP (hTERT-BJ1).
The subject of data set [7] is non-small-cell lung cancer cells H1299. The data set can be described thus: MTT relative viability, PhTERT-SEAP (H1299) cells. The settings on record: PhTERT-SEAP(hTERT-H1299).
Experimental: The tetrazolium reagent (MTT; 3-(4,5-di-methylthiazol)-2,5-diphenyl tetrazolium bromide, USB) was designed to yield a colored formazan upon metabolic reduction by viable cells. Approximately […] cells were plated onto each well of a 96-well plate and incubated in 5% CO2 at 37° C. for 24 h. To assess the in vitro cytotoxicity, each compound was dissolved in DMSO and prepared immediately before the experiments and was diluted into the complete medium before addition to cell cultures. Test compounds were then added to the culture medium for designated various concentrations. After 48 h, an amount of 25 μL of MTT was added to each well, and the samples were incubated at 37° C. for 4 h. A 100 μL solution of lysis buffer containing 20% SDS and 50% N,N-dimethylformamide was added to each well and incubated at 37° C. for another 16 h. The absorbency at 550 nm was measured using an ELISA reader.
Non small lung cancer cells H1299 (telomerase positive) were grown in RPMI 1640 media supplemented with 10% fetal bovine serum, 100 units/mL penicillin and 100 mg/mL streptomycin in a humidified atmosphere with 5% CO2 at 37° C. The hTERT immortalized hTERT-BJ1 (BD Biosciences Clontech)^39 were grown in DMEM media supplemented with 10% fetal calf serum, 100 units/mL penicillin and 100 mg/mL streptomycin, 1 mM sodium pyruvate, and 4 mM I-arginine in a humidified atmosphere with 5% CO2 at 37° C. Culture media were changed every 3 days. […] The stable clones derived from H1299 or hTERT-BJ1 were cultured using conditions that are similar to their parental cells.

Broadly, the IC50 is the concentration that inhibits the measured activity by half. Higher therefore signals weaker potency. Consider `O=C(Nc1ccc(NC(=O)c2ccccc2)c2c1C(=O)c1ccccc1C2=O)c1ccccc1` [VI4, 1,4-Bisbenzoylamido-9,10-anthracenedione], for which the 50% inhibitory concentration (IC50) in data set [1], in data set [3] and in data set [4] was over 20 µM throughout. Besides, the “Relative SEAP activity (%)” value in data set [2] (2.2 μM) is recorded as “(−4) ± 25.7^ %”; in data set [2] (22 μM), “(−10) ± 26.8 ^ %”; in data set [2] (224 μM), “(−41) ± 26.8 ^ %”; in data set [5] (2.2 μM), 81 ± 3.3%; in data set [5] (22 μM), 84 ± 2.6%; in data set [5] (224 μM), 80 ± 2.7%. In addition, the SEAP/vibility is on record as −0.04 in data set [2] (2.2 μM); −0.14 in data set [2] (22 μM); −1.10 in data set [2] (224 μM); 0.74 in data set [5] (2.2 μM); 0.96 in data set [5] (22 μM); 2.99 in data set [5] (224 μM). The “Relative MTT viability (%)” value worked out at 95 ± 4.9% in data set [6] (2.2 μM); 69 ± 3.2% in data set [6] (22 μM); 38 ± 2.6% in data set [6] (224 μM); 109 ± 6.0% in data set [7] (2.2 μM); 88 ± 6.2% in data set [7] (22 μM); 27 ± 1.8% in data set [7] (224 μM).

For `O=C(Nc1ccc(NC(=O)c2cccc(Cl)c2)c2c1C(=O)c1ccccc1C2=O)c1cccc(Cl)c1` [VI5, 1,4-Bis(3-chlorobenzoylamido)-9,10-anthracenedione], the IC50 in data set [1], in data set [3] and in data set [4] was over 20 µM throughout. Besides, the “Relative SEAP activity (%)” value in data set [2] (1.9 μM) is 98 ± 10.1%; in data set [2] (19 μM), 105 ± 8.8%; in data set [2] (194 μM) it was 89 ± 10.1%; in data set [5] (1.9 μM) it was 110 ± 4.9%; in data set [5] (19 μM) it was 112 ± 6.1%; in data set [5] (194 μM), 91 ± 3.0%. Further, the SEAP/vibility in data set [2] (1.9 μM) was found to be 0.99; in data set [2] (19 μM), 1.17; in data set [2] (194 μM), 1.48; in data set [5] (1.9 μM) it was 1.17; in data set [5] (19 μM) it was 1.10; in data set [5] (194 μM) it was 1.55. Moreover, the “Relative MTT viability (%)” value in data set [6] (1.9 μM) worked out at 99 ± 9.8%; in data set [6] (19 μM), 90 ± 1.9%; in data set [6] (194 μM), 60 ± 2.0%; in data set [7] (1.9 μM) it was 95 ± 11.3%; in data set [7] (19 μM), 102 ± 8.5%; in data set [7] (194 μM), 59 ± 4.3%.

As to `Cc1cccc(C(=O)Nc2ccc(NC(=O)c3cccc(C)c3)c3c2C(=O)c2ccccc2C3=O)c1` [VI6, 1,4-Bis(3-methylbenzoylamido)-9,10-anthracenedione], the IC50 in data set [1], in data set [3] and in data set [4] was over 20 µM each time. Besides, the “Relative SEAP activity (%)” value came to 97 ± 17.1% in data set [2] (2.1 μM); 78 ± 7.1% in data set [2] (21 μM); 70 ± 5.8% in data set [2] (210 μM); 107 ± 4.6% in data set [5] (2.1 μM); 104 ± 4.0% in data set [5] (21 μM); 99 ± 9.1% in data set [5] (210 μM). Further, the SEAP/vibility in data set [2] (2.1 μM) stood at 0.88; in data set [2] (21 μM), 0.71; in data set [2] (210 μM), 0.69; in data set [5] (2.1 μM), 1.06; in data set [5] (21 μM) it was 1.08; in data set [5] (210 μM), 1.20. Further, the “Relative MTT viability (%)” value is recorded as 110 ± 2.6% in data set [6] (2.1 μM); 109 ± 4.6% in data set [6] (21 μM); 101 ± 6.0% in data set [6] (210 μM); 101 ± 5.6% in data set [7] (2.1 μM); 97 ± 6.2% in data set [7] (21 μM); 83 ± 7.8% in data set [7] (210 μM).

`O=C(Nc1ccc(NC(=O)c2ccc(Cl)cc2Cl)c2c1C(=O)c1ccccc1C2=O)c1ccc(Cl)cc1Cl` [VI8, 1,4-Bis(2,4-dichlorobenzoylamido)-9,10-anthracenedione]: the half-inhibitory concentration (IC50) in data set [1], in data set [3] and in data set [4] was over 20 µM in each case. Moreover, the “Relative SEAP activity (%)” value is listed as 33 ± 11.2% in data set [2] (1.7 μM); 25 ± 17.2% in data set [2] (17 μM); 39 ± 12.8% in data set [2] (171 μM); 85 ± 7.9% in data set [5] (1.7 μM); 84 ± 7.1% in data set [5] (17 μM); 87 ± 2.6% in data set [5] (171 μM). The SEAP/vibility in data set [2] (1.7 μM) was determined as 0.32; in data set [2] (17 μM), 0.26; in data set [2] (171 μM) it was 0.52; in data set [5] (1.7 μM), 0.80; in data set [5] (17 μM) it was 0.89; in data set [5] (171 μM), 1.06. Further, the “Relative MTT viability (%)” value in data set [6] (1.7 μM) worked out at 102 ± 3.4%; in data set [6] (17 μM) it was 98 ± 7.2%; in data set [6] (171 μM), 76 ± 4.8%; in data set [7] (1.7 μM), 106 ± 3.9%; in data set [7] (17 μM) it was 95 ± 1.3%; in data set [7] (171 μM), 83 ± 1.2%.

On to `O=C(Nc1ccc(NC(=O)c2ccccc2F)c2c1C(=O)c1ccccc1C2=O)c1ccccc1F` [VI10, 1,4-Bis(2-fluorobenzoylamido)-9,10-anthracenedione], for which the IC50 in data set [1], in data set [3] and in data set [4] was over 20 µM each time. The “Relative SEAP activity (%)” value in data set [2] (2.0 μM) amounted to 95 ± 8.9%; in data set [2] (20 μM), 96 ± 9.8%; in data set [2] (207 μM), 79 ± 7.4%; in data set [5] (2.0 μM) it was 105 ± 7.8%; in data set [5] (20 μM) it was 107 ± 11.9%; in data set [5] (207 μM), 103 ± 14.4%. Besides, the SEAP/vibility is on record as 0.90 in data set [2] (2.0 μM); 0.96 in data set [2] (20 μM); 0.92 in data set [2] (207 μM); 0.91 in data set [5] (2.0 μM); 1.03 in data set [5] (20 μM); 1.34 in data set [5] (207 μM). The “Relative MTT viability (%)” value is on record as 106 ± 6.5% in data set [6] (2.0 μM); 105 ± 8.5% in data set [6] (20 μM); 86 ± 7.3% in data set [6] (207 μM); 116 ± 2.4% in data set [7] (2.0 μM); 104 ± 6.1% in data set [7] (20 μM); 77 ± 2.6% in data set [7] (207 μM).

As for `O=C(Nc1ccc(NC(=O)c2ccccc2[N+](=O)[O-])c2c1C(=O)c1ccccc1C2=O)c1ccccc1[N+](=O)[O-]` [VI11, 1,4-Bis(2-nitrobenzoylamido)-9,10-anthracenedione], the IC50 in data set [1], in data set [3] and in data set [4] was over 20 µM throughout. The “Relative SEAP activity (%)” value was 102 ± 33.4% in data set [2] (1.8 μM); 122 ± 19.5% in data set [2] (18 μM); 114 ± 28.1% in data set [2] (186 μM); 105 ± 4.3% in data set [5] (1.8 μM); 107 ± 7.9% in data set [5] (18 μM); 94 ± 8.0% in data set [5] (186 μM). The SEAP/vibility in data set [2] (1.8 μM) is 0.92; in data set [2] (18 μM) it was 1.14; in data set [2] (186 μM) it was 1.15; in data set [5] (1.8 μM) it was 1.00; in data set [5] (18 μM), 1.06; in data set [5] (186 μM) it was 1.10. Moreover, the “Relative MTT viability (%)” value is given as 110 ± 4.1% in data set [6] (1.8 μM); 107 ± 6.3% in data set [6] (18 μM); 99 ± 3.2% in data set [6] (186 μM); 104 ± 6.3% in data set [7] (1.8 μM); 101 ± 4.1% in data set [7] (18 μM); 86 ± 5.3% in data set [7] (186 μM).
